{"source": "ChEMBL document CHEMBL4152189", "about": "“Incorporation of nitric oxide donor into 1,3-dioxyxanthones leads to synergistic anticancer activity” (Eur J Med Chem, 2018)", "key": {"[1]": {"system": "L02", "test": "Induction of NO generation in human HL-7702 cells assessed as nitrite levels at 0.66 uM after 60 hrs by Griess assay (reference value: 11.8 +/- 1.3 uM)", "assay_type": "functional"}, "[2]": {"system": "HepG2", "test": "Induction of NO generation in human HepG2 cells assessed as nitrite levels at 0.33 uM after 60 hrs by Griess assay (reference value: 12.8 +/- 1.5 uM)", "assay_type": "functional"}, "[3]": {"system": "HepG2", "test": "Induction of apoptosis in human HepG2 cells assessed as late apoptotic/necrotic cells at 0.33 uM after 24 hrs by Annexin-V/propidium iodide staining-based flow cytometric analysis", "assay_type": "functional"}, "[4]": {"system": "L02", "test": "Induction of NO generation in human HL-7702 cells assessed as nitrite levels at 0.66 uM after 48 hrs by Griess assay (reference value: 11.6 +/- 1.1 uM)", "assay_type": "functional"}, "[5]": {"system": "MCF7", "test": "Growth inhibition of human MCF7 cells after 24 hrs by MTT assay", "assay_type": "functional, cell-based", "settings": "MCF7, 24 h"}, "[6]": {"system": "HepG2", "test": "Cell cycle arrest in human HepG2 cells assessed as accumulation at S phase at 0.16 to 0.66 uM after 24 hrs by propidium iodide/RNAse staining-based flow cytometric analysis", "assay_type": "functional"}, "[7]": {"system": "HepG2", "test": "Growth inhibition of human HepG2 cells after 24 hrs by MTT assay", "assay_type": "functional, cell-based", "settings": "HepG2, 24 h"}, "[8]": {"system": "HepG2", "test": "Induction of NO generation in human HepG2 cells assessed as nitrite levels at 0.33 uM after 3 hrs by Griess assay (reference value: 12.8 +/- 1.5 uM)", "assay_type": "functional"}, "[9]": {"system": "HepG2", "test": "Induction of apoptosis in human HepG2 cells assessed as increase in cleaved PARP level up to 0.66 uM after 24 hrs by Western blot analysis", "assay_type": "functional, cell-based"}, "[10]": {"test": "Selectivity index, ratio of IC50 for human HL-7702 cells to IC50 for human HepG2 cells", "assay_type": "toxicity", "settings": "HL-7702 cells versus HepG2 cells, read-out: Ratio IC50"}, "[11]": {"system": "L02", "test": "Induction of NO generation in human HL-7702 cells assessed as nitrite levels at 0.66 uM after 1 hr by Griess assay (reference value: 11.6 +/- 1.1 uM)", "assay_type": "functional"}, "[12]": {"system": "HepG2", "test": "Induction of apoptosis in human HepG2 cells assessed as increase in cleaved caspase9 level up to 0.66 uM after 24 hrs by Western blot analysis", "assay_type": "functional, cell-based"}, "[13]": {"system": "HepG2", "test": "Induction of NO generation in human HepG2 cells assessed as nitrite levels at 0.66 uM after 12 hrs by Griess assay (reference value: 12.7 +/- 1.8 uM)", "assay_type": "functional"}, "[14]": {"system": "HepG2", "test": "Induction of NO generation in human HepG2 cells assessed as nitrite levels at 0.66 uM after 3 hrs by Griess assay (reference value: 12.8 +/- 1.5 uM)", "assay_type": "functional"}, "[15]": {"system": "HepG2", "test": "Cell cycle arrest in human HepG2 cells assessed as accumulation at S phase after 24 hrs by propidium iodide/RNAse staining-based flow cytometric analysis", "assay_type": "functional"}, "[16]": {"system": "HepG2", "test": "Induction of NO generation in human HepG2 cells assessed as nitrite levels at 0.33 uM after 12 hrs by Griess assay (reference value: 12.7 +/- 1.8 uM)", "assay_type": "functional"}, "[17]": {"system": "HepG2", "test": "Induction of apoptosis in human HepG2 cells assessed as early apoptotic cells at 0.66 uM after 24 hrs by Annexin-V/propidium iodide staining-based flow cytometric analysis", "assay_type": "functional"}, "[18]": {"system": "L02", "test": "Growth inhibition of human HL-7702 cells after 24 hrs by MTT assay", "assay_type": "cell-based", "settings": "L02, 24 h"}, "[19]": {"system": "L02", "test": "Induction of NO generation in human HL-7702 cells assessed as nitrite levels at 0.66 uM after 24 hrs by Griess assay (reference value: 11.6 +/- 1.1 uM)", "assay_type": "functional"}, "[20]": {"system": "HepG2", "test": "Induction of NO generation in human HepG2 cells assessed as nitrite levels at 0.66 uM after 48 hrs by Griess assay (reference value: 12.8 +/- 1.7 uM)", "assay_type": "functional"}, "[21]": {"system": "HepG2", "test": "Induction of NO generation in human HepG2 cells assessed as nitrite levels at 0.16 uM after 48 hrs by Griess assay (reference value: 12.8 +/- 1.7 uM)", "assay_type": "functional"}, "[22]": {"system": "HepG2", "test": "Induction of apoptosis in human HepG2 cells assessed as inhibition of p53-MDM2 interaction by measuring downregulation of MDM2 expression at 1 uM after 24 hrs by Western blot analysis", "assay_type": "functional, cell-based"}, "[23]": {"system": "MDA-MB-231", "test": "Growth inhibition of human MDA-MB-231 cells after 24 hrs by MTT assay", "assay_type": "functional, cell-based", "settings": "MDA-MB-231, 24 h"}, "[24]": {"system": "HepG2", "test": "Induction of NO generation in human HepG2 cells assessed as nitrite levels at 0.16 uM after 6 hrs by Griess assay (reference value: 12.6 +/- 1.1 uM)", "assay_type": "functional"}, "[25]": {"system": "HepG2", "test": "Induction of NO generation in human HepG2 cells assessed as nitrite levels at 0.33 uM after 48 hrs by Griess assay (reference value: 12.8 +/- 1.7 uM)", "assay_type": "functional"}, "[26]": {"system": "HepG2", "test": "Induction of NO generation in human HepG2 cells assessed as nitrite levels at 0.16 uM after 60 hrs by Griess assay (reference value: 12.8 +/- 1.5 uM)", "assay_type": "functional"}, "[27]": {"system": "HepG2", "test": "Induction of apoptosis in human HepG2 cells assessed as inhibition of p53-MDM2 interaction by measuring upregulation of p53 expression after 24 hrs by Western blot analysis", "assay_type": "functional, cell-based"}, "[28]": {"system": "HepG2", "test": "Induction of NO generation in human HepG2 cells assessed as nitrite levels at 0.16 uM after 1 hr by Griess assay (reference value: 12.9 +/- 1.5 uM)", "assay_type": "functional"}, "[29]": {"system": "HepG2", "test": "Induction of apoptosis in human HepG2 cells at 0.33 uM after 24 hrs by Annexin-V/propidium iodide staining-based flow cytometric analysis", "assay_type": "functional"}, "[30]": {"system": "HepG2", "test": "Cell cycle arrest in human HepG2 cells assessed as accumulation at S phase at 0.66 uM after 24 hrs by propidium iodide/RNAse staining-based flow cytometric analysis", "assay_type": "functional"}, "[31]": {"system": "HepG2", "test": "Induction of apoptosis in human HepG2 cells at 0.16 uM after 24 hrs by Annexin-V/propidium iodide staining-based flow cytometric analysis", "assay_type": "functional"}, "[32]": {"system": "HepG2", "test": "Induction of NO generation in human HepG2 cells assessed as nitrite levels at 0.16 uM after 3 hrs by Griess assay (reference value: 12.8 +/- 1.5 uM)", "assay_type": "functional"}, "[33]": {"system": "HepG2", "test": "Growth inhibition of human HepG2 cells pre-incubated with NO scavenger carboxy-PTIO for 1 hr followed by 0.66 uM compound treatment for 24 hrs by MTT assay", "assay_type": "functional, cell-based"}, "[34]": {"system": "L02", "test": "Induction of NO generation in human HL-7702 cells assessed as nitrite levels at 0.66 uM after 6 hrs by Griess assay (reference value: 11.8 +/- 1.1 uM)", "assay_type": "functional"}, "[35]": {"system": "L02", "test": "Induction of NO generation in human HL-7702 cells assessed as nitrite levels at 0.66 uM after 3 hrs by Griess assay (reference value: 11.6 +/- 1.2 uM)", "assay_type": "functional"}, "[36]": {"system": "HepG2", "test": "Induction of apoptosis in human HepG2 cells assessed as late apoptotic/necrotic cells at 0.66 uM after 24 hrs by Annexin-V/propidium iodide staining-based flow cytometric analysis", "assay_type": "functional"}, "[37]": {"system": "HepG2", "test": "Induction of apoptosis in human HepG2 cells assessed as increase in cleaved caspase3 level up to 0.66 uM after 24 hrs by Western blot analysis", "assay_type": "functional, cell-based"}}, "note": "The source made the active and inactive calls. The calls are words filed in the database; no cut-off is given here."}
{"molecule": "COc1cccc2oc3cc(OCCCCCO[N+](=O)[O-])cc(O)c3c(=O)c12", "values": [{"measurement": "Activity", "setting": "[1]", "result": 14.5, "unit": "µM"}, {"measurement": "Activity", "setting": "[2]", "result": 18.2, "unit": "µM"}, {"measurement": "Activity", "setting": "[3]", "result": 11.8, "unit": "%"}, {"measurement": "Activity", "setting": "[4]", "result": 16.2, "unit": "µM"}, {"measurement": "IC50", "setting": "[5]", "result": 33.1, "unit": "µM"}, {"measurement": "Activity", "setting": "[6]", "result": "Active"}, {"measurement": "IC50", "setting": "[7]", "result": 0.33, "unit": "µM"}, {"measurement": "Activity", "setting": "[8]", "result": 23.2, "unit": "µM"}, {"measurement": "Activity", "setting": "[9]", "result": "Dose-dependent effect"}, {"measurement": "selectivity ratio", "setting": "[10]", "result": 1140}, {"measurement": "Activity", "setting": "[11]", "result": 14.2, "unit": "µM"}, {"measurement": "Activity", "setting": "[12]", "result": "Dose-dependent effect"}, {"measurement": "Activity", "setting": "[13]", "result": 36, "unit": "µM"}, {"measurement": "Activity", "setting": "[14]", "result": 25.7, "unit": "µM"}, {"measurement": "Activity", "setting": "[15]", "result": "Dose-dependent effect"}, {"measurement": "Activity", "setting": "[16]", "result": 31.5, "unit": "µM"}, {"measurement": "Activity", "setting": "[17]", "result": 45.1, "unit": "%"}, {"measurement": "IC50", "setting": "[18]", "result": 377, "unit": "µM"}, {"measurement": "Activity", "setting": "[19]", "result": 19.4, "unit": "µM"}, {"measurement": "Activity", "setting": "[20]", "result": 28.1, "unit": "µM"}, {"measurement": "Activity", "setting": "[21]", "result": 21.3, "unit": "µM"}, {"measurement": "Activity", "setting": "[22]", "result": "Active"}, {"measurement": "IC50", "setting": "[23]", "result": 0.57, "unit": "µM"}, {"measurement": "Activity", "setting": "[24]", "result": 22.9, "unit": "µM"}, {"measurement": "Activity", "setting": "[25]", "result": 26.6, "unit": "µM"}, {"measurement": "Activity", "setting": "[26]", "result": 15.7, "unit": "µM"}, {"measurement": "Activity", "setting": "[27]", "result": "Dose-dependent effect"}, {"measurement": "Activity", "setting": "[28]", "result": 15.6, "unit": "µM"}, {"measurement": "Activity", "setting": "[29]", "result": 76.6, "unit": "%"}, {"measurement": "Activity", "setting": "[30]", "result": 56.2, "unit": "%"}, {"measurement": "Activity", "setting": "[31]", "result": 4.6, "unit": "%"}, {"measurement": "Activity", "setting": "[32]", "result": 18.8, "unit": "µM"}, {"measurement": "growth inhibition (GI)", "setting": "[33]", "result": "inactive"}, {"measurement": "Activity", "setting": "[34]", "result": 17.1, "unit": "µM"}, {"measurement": "Activity", "setting": "[35]", "result": 15.1, "unit": "µM"}, {"measurement": "Activity", "setting": "[36]", "result": 41.7, "unit": "%"}, {"measurement": "Activity", "setting": "[37]", "result": "Dose-dependent effect"}]}
